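These data come from cells grown in 96-well plates and exposed to compound for 48 hours at five concentrations. GI50 is the concentration that inhibits growth by half.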 Calls of active or inactive are those of the source. Cut-off read from the data, not from the text of the source: active = GI50 up to about 1.1 µM and inactive = higher.
Experiments:
Experiment in all cases: inhibition of tumour cell growth, NCI panel, 48 h
HCT-15 = tested on: HCT-15
786-0 = tested on: 786-0
HT-29 = tested on: HT-29
IGROV-1 = tested on: IGROV-1
EKVX = tested on: EKVX
SF-539 = tested on: SF-539
NCI-H522 = tested on: NCI-H522
SK-OV-3 = tested on: SK-OV-3
SW-620 = tested on: SW-620
NCI-H226 = tested on: NCI-H226
CCRF-CEM = tested on: CCRF-CEM
M14 = tested on: M14
SN12C = tested on: SN12C
SNB-75 = tested on: SNB-75
A498 = tested on: A498
CAKI-1 = tested on: CAKI-1
SR = tested on: SR

SMILES | GI50 (HCT-15) [µM] | GI50 (786-0) | GI50 (HT-29) | GI50 (IGROV-1) | GI50 (EKVX) | GI50 (SF-539) | GI50 (NCI-H522) | GI50 (SK-OV-3) | GI50 (SW-620) | GI50 (NCI-H226) | GI50 (CCRF-CEM) | GI50 (M14) | GI50 (SN12C) | GI50 (SNB-75) | GI50 (A498) | GI50 (CAKI-1) | GI50 (SR)
Cc1ccc2c(CC(=O)O)cc(=O)oc2c1 | > 100 | > 100 µM (inactive) | > 100 µM (inactive) | > 100 µM (inactive) | > 100 µM (inactive) | > 100 µM (inactive) | > 100 µM (inactive) | > 100 µM (inactive) | > 100 µM (inactive) | > 100 µM (inactive) | > 100 µM (inactive) | > 100 µM (inactive) | > 100 µM (inactive) | 44.9 µM (inactive) | > 100 µM (inactive) | > 100 µM (inactive) | –
NNC(=O)N/N=C1\C(=O)N(c2nccs2)C(=O)C(=O)C1c1nc2ccccc2s1 (stereo not given) | > 100 | > 100 µM (inactive) | > 100 µM (inactive) | > 100 µM (inactive) | > 100 µM (inactive) | > 100 µM (inactive) | – | > 100 µM (inactive) | > 100 µM (inactive) | > 100 µM (inactive) | – | > 100 µM (inactive) | > 100 µM (inactive) | > 100 µM (inactive) | – | > 100 µM (inactive) | –
COC(=O)C1=CC2OC1(C)CCC2=O (stereo not given) | 67.9 | > 100 µM (inactive) | > 100 µM (inactive) | > 100 µM (inactive) | > 100 µM (inactive) | > 100 µM (inactive) | 48.1 µM (inactive) | > 100 µM (inactive) | 74.6 µM (inactive) | > 100 µM (inactive) | 35.1 µM (inactive) | 44.6 µM (inactive) | > 100 µM (inactive) | > 100 µM (inactive) | – | 63 µM (inactive) | 45.9 µM (inactive)
Cc1ccc(/C=C/C(=O)C(C)(C)CN2CCCCC2)cc1 | 3.76 | 6 µM (inactive) | 3.24 µM (inactive) | 11.4 µM (inactive) | 3.18 µM (inactive) | 4.6 µM (inactive) | 3.33 µM (inactive) | 11 µM (inactive) | 2.72 µM (inactive) | 13.2 µM (inactive) | 3.11 µM (inactive) | 7.31 µM (inactive) | 3.9 µM (inactive) | 5.37 µM (inactive) | 6.24 µM (inactive) | 3.78 µM (inactive) | –
CC(=O)N(C)c1ccc2ncccc2c1[N+](=O)[O-] | > 100 | > 100 µM (inactive) | > 100 µM (inactive) | > 100 µM (inactive) | > 100 µM (inactive) | > 100 µM (inactive) | – | – | > 100 µM (inactive) | > 100 µM (inactive) | > 100 µM (inactive) | > 100 µM (inactive) | > 100 µM (inactive) | > 100 µM (inactive) | > 100 µM (inactive) | > 100 µM (inactive) | > 100 µM (inactive)
O=C(O/C(=C(/N=N/c1ccccc1)c1ccccc1)c1ccccc1)c1ccccc1 | > 100 | > 100 µM (inactive) | > 100 µM (inactive) | > 100 µM (inactive) | > 100 µM (inactive) | > 100 µM (inactive) | > 100 µM (inactive) | > 100 µM (inactive) | > 100 µM (inactive) | > 100 µM (inactive) | – | – | > 100 µM (inactive) | 87.3 µM (inactive) | – | > 100 µM (inactive) | > 100 µM (inactive)
Cn1c(=O)nc2n(-c3cc(Cl)ccc3Cl)c3ccccc3nc-2c1=O | 3.8 | 8.45 µM (inactive) | 1.54 µM (inactive) | 13 µM (inactive) | 3.88 µM (inactive) | 5.92 µM (inactive) | 5.31 µM (inactive) | 28 µM (inactive) | 2.18 µM (inactive) | 7.69 µM (inactive) | 4.02 µM (inactive) | 3.63 µM (inactive) | 4.48 µM (inactive) | 11.2 µM (inactive) | 18.6 µM (inactive) | 7.19 µM (inactive) | –
C=CC/N=C1/N=C(CC(=O)OCC)CS1 | > 100 | > 100 µM (inactive) | > 100 µM (inactive) | > 100 µM (inactive) | > 100 µM (inactive) | > 100 µM (inactive) | > 100 µM (inactive) | > 100 µM (inactive) | > 100 µM (inactive) | > 100 µM (inactive) | > 100 µM (inactive) | > 100 µM (inactive) | > 100 µM (inactive) | > 100 µM (inactive) | > 100 µM (inactive) | > 100 µM (inactive) | –
CN1CCC(O)C(CNC23CC4CC(CC(C4)C2)C3)C1 (stereo not given) | – | > 100 µM (inactive) | > 100 µM (inactive) | – | > 100 µM (inactive) | > 100 µM (inactive) | > 100 µM (inactive) | > 100 µM (inactive) | > 100 µM (inactive) | > 100 µM (inactive) | > 100 µM (inactive) | – | > 100 µM (inactive) | – | > 100 µM (inactive) | > 100 µM (inactive) | > 100 µM (inactive)
